Measurements from the supplement of paper PMC11208160.

Assay: recombinant UMI read abundance after kanamycin selection (control-corrected) (log10(CPM+1)); higher = more efficient recombination; extreme values may be limits of the assay; sequences stand for … in AGTGCAGAGAAAATCGGCCAGTTTTCTCTGCCTGCAGTCCGCATGCCGTGGGACCCCTTGGGTTCTAACCTGTTGCCTAGATTTATGCAGCGGACTGCCTTTCTCCCAAAGTGATAAACCGG…AGGTTGGTTTCACT; site = the 11-nt donor
In short: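 After plating on IPTG (0.07 mM) plus kanamycin, or unselected, in two replicates, recombinant UMIs were PCR-amplified across the donor–target junction and sequenced. The cells were Escherichia coli co-electroporated with a UMI-tagged donor and donor-binding-loop pair library and a target plasmid with a fixed target and T7-inducible IS621 bridge recombinase. Values are log10(CPM+1), with CPM averaged over replicates and scaled by control-derived factors.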
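Further: IS621 bridge recombinase in Escherichia coli cells against a fixed T5 target plasmid.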

Sequence | recombinant UMI read abundance (log10)
CTGTTAGCATGGACCGGTTTTCCCGGTAATCCGTATTTGTG (site CAGTTAGCTCA) | 0.669
CTGTTAGCATGGACCGGTTTTCCCGGTAATCCGTATTTGTG (site CCGTTAGCTCA) | 0.102
CTGTTAGCATGGACCGGTTTTCCCGGTAATCCGTATTTGTG (site CGGTTAGCTCA) | 0.0126
CTGTTAGCATGGACCGGTTTTCCCGGTAATCCGTATTTGTG (site CTGTTAGCTCA) | 2.07
CTGTTCGCATGGACCGGTTTTCCCGGTAATCCGTATTTGTA (site CTGTTCGCTTA) | 2.09
CTGTTGCCATGGACCGGTTTTCCCGGTAATCCGTATTTGAC (site CTGTTGCCTGT) | 0
CTTAAAGCATGGACCGGTTTTCCCGGTAATCCGTATTTGAT (site CATAAAGCTAT) | 0
CTTAAAGCATGGACCGGTTTTCCCGGTAATCCGTATTTGAT (site CCTAAAGCTAT) | 0
CTTAAAGCATGGACCGGTTTTCCCGGTAATCCGTATTTGAT (site CGTAAAGCTAT) | 0
CTTAAAGCATGGACCGGTTTTCCCGGTAATCCGTATTTGAT (site CTTAAAGCTAT) | 1.08
CTTAATACATGGACCGGTTTTCCCGGTAATCCGTATTTGGC (site CATAATACTGC) | 0.00796
CTTAATACATGGACCGGTTTTCCCGGTAATCCGTATTTGGC (site CCTAATACTGC) | 0
CTTAATACATGGACCGGTTTTCCCGGTAATCCGTATTTGGC (site CGTAATACTGC) | 0.0463
CTTAATACATGGACCGGTTTTCCCGGTAATCCGTATTTGGC (site CTTAATACTGC) | 0
CTTACGGCATGGACCGGTTTTCCCGGTAATCCGTATTTGAT (site CTTACGGCTAT) | 1.44
CTTACTACATGGACCGGTTTTCCCGGTAATCCGTATTTGGC (site CTTACTACTGC) | 0.688
CTTAGAACATGGACCGGTTTTCCCGGTAATCCGTATTTGGC (site ATTAGAACTGC) | 0
CTTAGAACATGGACCGGTTTTCCCGGTAATCCGTATTTGGC (site CTTAGAACTGC) | 1.4
CTTAGAACATGGACCGGTTTTCCCGGTAATCCGTATTTGGC (site GTTAGAACTGC) | 0.016
CTTAGAACATGGACCGGTTTTCCCGGTAATCCGTATTTGGC (site TTTAGAACTGC) | 0
CTTCAATCATGGACCGGTTTTCCCGGTAATCCGTATTTGGA (site CTTCAATCTTC) | 1.71
CTTCACTCATGGACCGGTTTTCCCGGTAATCCGTATTTGTA (site CTTCACTCTTA) | 1.73
CTTCACTCATGGACCGGTTTTCCCGGTAATCCGTATTTGTA (site CTTCCCTCTTA) | 0.00659

Sequence | recombinant UMI read abundance (log10)
CTTCACTCATGGACCGGTTTTCCCGGTAATCCGTATTTGTA (site CTTCGCTCTTA) | 0.00683
CTTCACTCATGGACCGGTTTTCCCGGTAATCCGTATTTGTA (site CTTCTCTCTTA) | 0
CTTCAGTCATGGACCGGTTTTCCCGGTAATCCGTATTTGGC (site CTTCAGTCTGC) | 0.339
CTTCATACATGGACCGGTTTTCCCGGTAATCCGTATTTGTT (site CTTCATACTAA) | 1.32
CTTCCCTCATGGACCGGTTTTCCCGGTAATCCGTATTTGTG (site CTTCCCTCTCA) | 0.257
CTTCCTACATGGACCGGTTTTCCCGGTAATCCGTATTTGTA (site CTTCCTACTTA) | 0.451
CTTCGCACATGGACCGGTTTTCCCGGTAATCCGTATTTGAA (site CTTCGCACTTT) | 0.375
CTTCTCTCATGGACCGGTTTTCCCGGTAATCCGTATTTGTA (site ATTCTCTCTTA) | 0.402
CTTCTCTCATGGACCGGTTTTCCCGGTAATCCGTATTTGTA (site CATCTCTCTTA) | 0.954
CTTCTCTCATGGACCGGTTTTCCCGGTAATCCGTATTTGTA (site CCTCTCTCTTA) | 0.823
CTTCTCTCATGGACCGGTTTTCCCGGTAATCCGTATTTGTA (site CGTCTCTCTTA) | 1.35
CTTCTCTCATGGACCGGTTTTCCCGGTAATCCGTATTTGTA (site CTACTCTCTTA) | 0.967
CTTCTCTCATGGACCGGTTTTCCCGGTAATCCGTATTTGTA (site CTCCTCTCTTA) | 1.89
CTTCTCTCATGGACCGGTTTTCCCGGTAATCCGTATTTGTA (site CTGCTCTCTTA) | 0.693
CTTCTCTCATGGACCGGTTTTCCCGGTAATCCGTATTTGTA (site CTTATCTCTTA) | 0.00276
CTTCTCTCATGGACCGGTTTTCCCGGTAATCCGTATTTGTA (site CTTCACTCTTA) | 0
CTTCTCTCATGGACCGGTTTTCCCGGTAATCCGTATTTGTA (site CTTCCCTCTTA) | 0.181
CTTCTCTCATGGACCGGTTTTCCCGGTAATCCGTATTTGTA (site CTTCGCTCTTA) | 0.00811
CTTCTCTCATGGACCGGTTTTCCCGGTAATCCGTATTTGTA (site CTTCTATCTTA) | 0.394
CTTCTCTCATGGACCGGTTTTCCCGGTAATCCGTATTTGTA (site CTTCTCACTTA) | 0.0108
CTTCTCTCATGGACCGGTTTTCCCGGTAATCCGTATTTGTA (site CTTCTCCCTTA) | 0.207
CTTCTCTCATGGACCGGTTTTCCCGGTAATCCGTATTTGTA (site CTTCTCGCTTA) | 0.0131
CTTCTCTCATGGACCGGTTTTCCCGGTAATCCGTATTTGTA (site CTTCTCTCTAA) | 0.394

Sequence | recombinant UMI read abundance (log10)
CTTCTCTCATGGACCGGTTTTCCCGGTAATCCGTATTTGTA (site CTTCTCTCTCA) | 0.552
CTTCTCTCATGGACCGGTTTTCCCGGTAATCCGTATTTGTA (site CTTCTCTCTGA) | 0.448
CTTCTCTCATGGACCGGTTTTCCCGGTAATCCGTATTTGTA (site CTTCTCTCTTA) | 2.28
CTTCTCTCATGGACCGGTTTTCCCGGTAATCCGTATTTGTA (site CTTCTCTCTTC) | 0.278
CTTCTCTCATGGACCGGTTTTCCCGGTAATCCGTATTTGTA (site CTTCTCTCTTG) | 0.558
CTTCTCTCATGGACCGGTTTTCCCGGTAATCCGTATTTGTA (site CTTCTCTCTTT) | 0.676
CTTCTCTCATGGACCGGTTTTCCCGGTAATCCGTATTTGTA (site CTTCTGTCTTA) | 0.00544
CTTCTCTCATGGACCGGTTTTCCCGGTAATCCGTATTTGTA (site CTTCTTTCTTA) | 0
CTTCTCTCATGGACCGGTTTTCCCGGTAATCCGTATTTGTA (site CTTGTCTCTTA) | 0.00827
CTTCTCTCATGGACCGGTTTTCCCGGTAATCCGTATTTGTA (site CTTTTCTCTTA) | 0
CTTCTCTCATGGACCGGTTTTCCCGGTAATCCGTATTTGTA (site GTTCTCTCTTA) | 0.0236
CTTCTCTCATGGACCGGTTTTCCCGGTAATCCGTATTTGTA (site TTTCTCTCTTA) | 0.396
CTTCTCTCATGGACCGGTTTTCCCGGTAATCCGTATTTGTG (site CTTCTCTCTAA) | 0.0117
CTTCTCTCATGGACCGGTTTTCCCGGTAATCCGTATTTGTG (site CTTCTCTCTCA) | 0.154
CTTCTCTCATGGACCGGTTTTCCCGGTAATCCGTATTTGTG (site CTTCTCTCTGA) | 0
CTTCTCTCATGGACCGGTTTTCCCGGTAATCCGTATTTGTG (site CTTCTCTCTTA) | 0
CTTCTCTCATGGACCGGTTTTCCCGGTAATCCGTATTTGTT (site CTTCTCTCTAA) | 2.22
CTTCTCTCATGGACCGGTTTTCCCGGTAATCCGTATTTGTT (site CTTCTCTCTCA) | 0.0142
CTTCTCTCATGGACCGGTTTTCCCGGTAATCCGTATTTGTT (site CTTCTCTCTGA) | 0
CTTCTCTCATGGACCGGTTTTCCCGGTAATCCGTATTTGTT (site CTTCTCTCTTA) | 0.757
CTTCTGTCATGGACCGGTTTTCCCGGTAATCCGTATTTGTA (site CTTCTATCTTA) | 2.41
CTTCTGTCATGGACCGGTTTTCCCGGTAATCCGTATTTGTA (site CTTCTCTCTTA) | 0.00482
